Measurements: PubChem BioAssay AID179 (DTP/NCI, 2004)
“And” between values parts separate entries of the source, which are not always exact repeats. Identical values can stand only once. The source made the active and inactive calls.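 Rule for the calls: active = compounds giving half or more protection of infected cells from virus-caused growth loss, again on retest; inactive = the rest.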

Test system: CEM cells HIV-1 protection, formazan growth assay
Assay: NCI AIDS Antiviral Assay
Details: for IC50: measured here: growth of uninfected CEM cells
Procedure, shortened: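 Soluble formazan readout of cell growth; CEM cells ± HIV-1; 5 drug concs. ≥50% protection → retest; ≥50% again = moderately active; reproducible 100% = confirmed active.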

| Structure (SMILES) | EC50 [µM] | IC50 | outcome |
| --- | --- | --- | --- |
| O=[N+]([O-])c1cccc(N=Cc2ccc(O)cc2)c1 | > 200 | 182 µM |  |
| NCCCNCCCCNC(=O)C(O)NC(=O)CCCCCCN=C(N)N (centres undefined) | 288 | 501 µM |  |
| CS(=O)(=O)N1CC(CCl)c2ccc(S)cc21 (centres undefined) |  |  | inactive |
| COc1cc(OC)c2c(c1)OC(c1ccccc1)CC2=O (centres undefined) | > 200 | > 200 µM |  |
| CCN(CC)C(=O)CC12CCCCC1=Nc1ccccc12 (centres undefined) | > 871 | 550 µM |  |
| CCCCCCCCCCCCOP(=O)(O)OP(=O)(O)OCC1OC(n2cc(C)c(=O)[nH]c2=O)CC1O (centres undefined) | > 200 | 102 µM |  |
| O=C(O)c1ccc(Nc2nc3ccccc3nc2-c2cccs2)cc1 | > 200 | 60.3 µM |  |
| Cc1cc(C)nc(NS(=O)(=O)c2ccc(Nc3c4ccccc4nc4c(C(=O)NCCN(C)C)ccc(Cl)c34)cc2)n1 |  |  | inactive |
| C=C(/C=C/C=C(\CO)CCC=C(C)C)[C@H]1CCC2([C@H](CCCO)/C(=C(/C)C=O)CC[C@]2(C)O)[C@H]1O (some centres undefined) | > 263 | 195 µM |  |
| CCc1cc(-c2ccc(OC)cc2)c(C#N)c(=S)n1C1OC(COC(C)=O)C(OC(C)=O)C(OC(C)=O)C1OC(C)=O (centres undefined) | > 200 | 14.5 µM and 12.3 µM |  |
| O=C(O)c1c[nH]cc1C(=O)O |  |  | inactive |
| CCOCc1cc(=O)c2cc3c(cc2o1)OC(C)(C)CC3 |  |  | inactive |
| CC(=O)Oc1c(Br)cc(-c2oc(-c3cc(Br)c(OC(C)=O)c(Br)c3)c3ccccc23)cc1Br | > 100 | 38.9 µM |  |
| COc1ccccc1C(O)(c1ccccc1)C(O)(c1ccccc1)c1ccccc1OC (centres undefined) | > 15.8 | > 15.8 µM |  |
| CC(=O)C(N)=Nc1ccccc1 | > 1550 | > 1550 µM |  |
| CNC(=O)NC(CCCCNC(=O)OCc1ccccc1)C(=O)OCc1ccccc1 (centres undefined) | > 83.2 | 39.8 µM |  |
| CC(=O)OC1COC(n2c(N)c(C#N)c(-c3ccccc3)c(C#N)c2=S)C(OC(C)=O)C1OC(C)=O (centres undefined) | > 200 | 33.9 µM and 36.3 µM |  |
| O=C(O)CN1C(=O)c2ccc(NC(=O)C(=O)O)cc2S1(=O)=O | > 200 | > 200 µM |  |

| Structure (SMILES) | EC50 [µM] | IC50 | outcome |
| --- | --- | --- | --- |
| CCCCCCCCC(C)CCCCCCCCC(=O)OCC(COP(=O)([O-])OCC[N+](C)(C)C)OC(=O)CCCCCCCCC(C)CCCCCCCC (centres undefined) |  |  | inactive |
| CC12CCC(C(=O)n3c1nc1ccccc13)C(C)(C)O2 (centres undefined) | > 200 | > 200 µM |  |
| O=C(OCc1ccccc1)C1(N2CN(C3(C(=O)OCc4ccccc4)CCCC3)CN(C3(C(=O)OCc4ccccc4)CCCC3)C2)CCCC1 | > 200 | 35.5 µM |  |
| Nc1nc(N)c(C2=CCNCC2)c(=O)[nH]1 | > 200 | > 200 µM |  |
| NC(=O)c1oc([N+](=O)[O-])c(-c2ccccc2)c1-c1ccccc1 | > 200 | 15.1 µM |  |
| COC(=O)[C@@]1(C)C(=O)CC[C@@H]1C=O | > 251 | 50.1 µM |  |
| COc1ccc(S(=O)c2ccc(OC)cc2)cc1 | > 955 | 490 µM |  |
| Cc1cc(-c2c(O)c3c(ccc4ccccc43)oc2=O)no1 | > 200 | 93.3 µM |  |
| CCOc1ccccc1NC(=O)CCc1nc(=S)[nH][nH]1 | > 851 | 316 µM |  |
| CCc1cc(=O)oc2c3c(cc(OC)c12)O[C@H](C)[C@@H](C)C3=O | > 200 | 31.6 µM |  |
| CCOC(=O)c1cc(-c2ccc(OC)cc2)c([N+](=O)[O-])[nH]1 | > 200 | 25.7 µM |  |
| COC(=O)/C(=N/NC(N)=O)C(C(=O)C(=O)Nc1ccc(C)cc1)c1nc2ccc(C(=O)c3ccccc3)cc2[nH]c1=O (centres undefined) | > 33.1 | > 33.1 µM |  |
| CC1CCC(=O)NCCCCC(=O)N1 (centres undefined) | > 36.3 | > 36.3 µM |  |
| O=S(O)CCCSSc1ccccc1 |  |  | inactive |
| S=C1N(c2ccc(Cl)cc2)C2=C(N=Nc3ccccc3Cl)C(=Nc3ccccc3S2)N1c1ccccn1 | > 46.8 | 21.9 µM |  |
| C1CCCCC/C2=C(\CCCC1)CSCCCS2 | > 200 | 58.9 µM |  |
| COc1ccccc1NC1=NCC(C)S1 (centres undefined) | > 200 | > 200 µM |  |
